Source: PMC7113757 (Antiviral Research, 2014)

Key:
EV71 3C^pro = EV71 3C^pro (Human enterovirus 71, UniProt Q66478); format: cell-based
HPeV 3C^pro = biological target: T1, HPeV 3C^pro (Human parechovirus 1, UniProt Q66578); format: cell-based
T1 sequence (Q66578 1518-1711 limits assumed): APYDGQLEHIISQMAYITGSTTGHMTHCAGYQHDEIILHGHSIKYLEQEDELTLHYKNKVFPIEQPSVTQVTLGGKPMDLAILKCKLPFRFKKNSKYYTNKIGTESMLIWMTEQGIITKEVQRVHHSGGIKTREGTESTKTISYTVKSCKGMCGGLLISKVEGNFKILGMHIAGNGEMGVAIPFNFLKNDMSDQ

SAFV = assay: Growth curves of SAFV; format: cell-based; settings: 50 μM
CVB3 3C^pro [1] = biological target: T2, CVB3 3C^pro (Coxsackievirus B3, UniProt P03313); assay: Western blot of fusion protein cleavage in COS-1 cells; format: cell-based; settings: 50 μM, pBind-3Cpro(CVB3)-VP16
EMCV = assay: Growth curves of EMCV; format: cell-based; settings: 50 μM
CVB3 3C^pro [2] = biological target: T2, CVB3 3C^pro; assay: Cell-based protease assay with EGFP read-out; settings: 50 μM, COS-1 cells, imaged after 2 days
EMCV 3C^pro = biological target: T3, EMCV 3C^pro (Encephalomyocarditis virus, UniProt P03304); format: cell-based
T3 sequence (P03304 1626-1830 limits assumed): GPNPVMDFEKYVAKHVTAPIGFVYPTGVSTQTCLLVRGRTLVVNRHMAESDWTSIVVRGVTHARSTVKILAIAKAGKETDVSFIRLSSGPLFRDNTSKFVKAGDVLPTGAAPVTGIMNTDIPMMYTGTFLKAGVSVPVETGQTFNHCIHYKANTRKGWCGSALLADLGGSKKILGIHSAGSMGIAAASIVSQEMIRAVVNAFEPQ

HAV strain HM175 = settings: ref Debing et al., 2013; cited from earlier work
FMDV 3C^pro = FMDV 3C^pro (Foot-and-mouth disease virus serotype O, UniProt P03305); assay: cell-based; format: cell-based
CVB3 3C^pro [3] = biological target: T2, CVB3 3C^pro; assay: Cell-based protease assay
PV 3C^pro = PV 3C^pro (Poliovirus type 1, UniProt P03300); format: cell-based
HAV 3C^pro = biological target: T4, HAV 3C^pro (Human hepatitis A virus genotype IB, UniProt P08617); format: cell-based
T4 sequence (P08617 1520-1738 limits assumed): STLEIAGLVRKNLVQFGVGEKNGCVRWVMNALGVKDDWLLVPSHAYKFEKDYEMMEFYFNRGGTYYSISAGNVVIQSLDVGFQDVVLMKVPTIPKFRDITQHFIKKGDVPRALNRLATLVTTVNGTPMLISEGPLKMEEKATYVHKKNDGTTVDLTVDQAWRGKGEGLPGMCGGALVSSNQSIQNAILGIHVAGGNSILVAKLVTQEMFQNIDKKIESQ

SAFV 3C^pro = biological target: T5, SAFV 3C^pro (Saffold virus, UniProt C0MHL9); format: cell-based
T5 sequence (C0MHL9 1618-1834 limits assumed): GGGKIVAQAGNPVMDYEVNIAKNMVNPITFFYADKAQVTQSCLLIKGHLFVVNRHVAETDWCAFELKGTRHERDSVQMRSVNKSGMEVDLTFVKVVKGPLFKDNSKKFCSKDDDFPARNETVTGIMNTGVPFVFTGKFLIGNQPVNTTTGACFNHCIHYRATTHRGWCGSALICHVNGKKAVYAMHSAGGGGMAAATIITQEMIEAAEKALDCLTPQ

HRV14 3C^pro = HRV14 3C^pro (Human rhinovirus 14, UniProt P03303); format: cell-based

| SMILES | FLuc expression upon treatment, EV71 3Cpro construct (EV71 3C^pro) | effect on reporter activity, HPeV 3Cpro construct (HPeV 3C^pro) | activity against SAFV in growth curves (SAFV) | cleavage of fusion protein (Western blot) (CVB3 3C^pro [1]) | activity against EMCV in growth curves (EMCV) | GFP signal from pG5EGFP reporter (CVB3 3C^pro [2]) | effect on reporter activity, EMCV 3Cpro construct (EMCV 3C^pro) | effect on HAV replication, strain HM175 (HAV strain HM175) | FLuc expression upon treatment, FMDV 3Cpro construct (FMDV 3C^pro) | EC50 (CVB3 3C^pro [3]) [µM] | FLuc expression upon treatment, CVB3 3Cpro construct (CVB3 3C^pro [3]; 50 μM, COS-1 cells) | increase in FLuc levels compared to untreated (CVB3 3C^pro [3]; 50 μM, COS-1 cells, CVB3 3Cpro construct) [fold] | FLuc expression upon treatment, PV 3Cpro construct (PV 3C^pro) | effect on reporter activity, HAV 3Cpro construct (HAV 3C^pro) | effect on reporter activity, SAFV 3Cpro construct (SAFV 3C^pro) | FLuc expression upon treatment, HRV14 3Cpro construct (HRV14 3C^pro) | EC50 (FMDV 3C^pro) [µM] | inhibitory activity towards FMDV 3Cpro (FMDV 3C^pro) |
| --- | --- | --- | --- | --- | --- | --- | --- | --- | --- | --- | --- | --- | --- | --- | --- | --- | --- | --- |
| CCOC(=O)/C=C/[C@H](C[C@@H]1CCNC1=O)NC(=O)[C@@H](CC(=O)[C@@H](NC(=O)c1cc(C)on1)C(C)C)Cc1ccc(F)cc1 [AG7088] | induced | no effect | no significant activity | not completely blocked | no significant activity | GFP was visible | no effect | no effect | increased | 1.1 | induced | ~40 | induced | no effect | no effect | induced | – | – |
| C#CC[C@@H](C(=O)N[C@H](/C=C/C(=O)OCC)C[C@@H]1CCNC1=O)n1cccc(NC(=O)c2cc(C)on2)c1=O [AG7404] | – | – | – | – | – | – | – | – | – | 3.6 | – | – | – | – | – | – | > 100 | little or no inhibitory activity |
